Data on 48 molecules can be found in patent publication US20190284168A1, “PYRAZOLE DERIVATIES AS SGC STIMULATORS” (IRONWOOD PHARMACEUTICALS, INC., priority 2014, published 2019).

A value given as a limit tells only on which side of the number the result lay.

This assay has as its target T1, soluble guanylate cyclase (sGC) (Homo sapiens, UniProt Q02108+Q02153).
T1 construct: endogenously expressing soluble guanylate cyclase (sGC); endogenous in cells; host or cells: HEK293
T1 sequence (Q02153 1-619): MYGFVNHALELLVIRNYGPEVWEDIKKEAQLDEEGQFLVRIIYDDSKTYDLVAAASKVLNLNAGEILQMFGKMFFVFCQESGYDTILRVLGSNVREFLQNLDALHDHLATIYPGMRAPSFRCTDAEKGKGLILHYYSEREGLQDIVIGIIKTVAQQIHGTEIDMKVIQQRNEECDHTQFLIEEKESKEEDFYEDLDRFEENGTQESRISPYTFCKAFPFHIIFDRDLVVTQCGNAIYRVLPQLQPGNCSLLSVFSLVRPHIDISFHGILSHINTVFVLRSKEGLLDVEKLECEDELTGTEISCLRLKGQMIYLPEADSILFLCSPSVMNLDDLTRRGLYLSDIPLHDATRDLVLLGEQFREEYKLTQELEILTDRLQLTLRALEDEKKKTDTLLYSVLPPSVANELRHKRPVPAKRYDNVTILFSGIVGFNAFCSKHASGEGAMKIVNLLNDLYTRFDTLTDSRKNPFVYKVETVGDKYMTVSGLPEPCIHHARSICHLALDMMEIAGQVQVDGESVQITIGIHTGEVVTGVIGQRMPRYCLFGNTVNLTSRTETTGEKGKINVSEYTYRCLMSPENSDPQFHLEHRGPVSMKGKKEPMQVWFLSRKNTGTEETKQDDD
T1 sequence (Q02108 1-690): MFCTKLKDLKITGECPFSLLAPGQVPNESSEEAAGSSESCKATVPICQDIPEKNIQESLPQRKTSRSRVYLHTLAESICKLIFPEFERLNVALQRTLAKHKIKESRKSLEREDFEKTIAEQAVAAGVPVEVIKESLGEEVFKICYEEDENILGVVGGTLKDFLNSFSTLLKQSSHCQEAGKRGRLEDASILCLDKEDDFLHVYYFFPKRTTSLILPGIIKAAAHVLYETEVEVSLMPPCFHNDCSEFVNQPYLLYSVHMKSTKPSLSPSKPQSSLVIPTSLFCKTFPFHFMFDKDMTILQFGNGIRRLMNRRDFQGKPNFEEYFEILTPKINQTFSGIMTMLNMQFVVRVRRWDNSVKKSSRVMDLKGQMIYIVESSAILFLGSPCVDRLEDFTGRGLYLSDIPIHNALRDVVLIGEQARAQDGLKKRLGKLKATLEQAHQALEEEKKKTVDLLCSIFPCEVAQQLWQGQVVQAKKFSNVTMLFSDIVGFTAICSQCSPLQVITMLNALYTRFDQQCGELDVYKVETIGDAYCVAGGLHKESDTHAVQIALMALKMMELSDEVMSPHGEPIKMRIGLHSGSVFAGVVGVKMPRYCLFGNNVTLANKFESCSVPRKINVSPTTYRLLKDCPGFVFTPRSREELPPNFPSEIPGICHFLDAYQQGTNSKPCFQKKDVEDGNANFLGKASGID
Kind of assay: sGC-HEK-cGMP assay with LC/MS detection. It counts as cell-based. As to conditions: HEK293 whole cells, LC/MS detection of cGMP, 10 μM DETA-NONOate; 50% of high control response (30 μM Compound Y); read-out: Absolute EC50 (nM)- binned (~).

Description: Human embryonic kidney cells (HEK293), endogenously expressing soluble guanylate cyclase (sGC), were used to evaluate the activity of test compounds. Compounds stimulating the sGC enzyme should cause an increase in the intracellular concentration of cGMP. HEK 293 cells were seeded in Dulbecco's Modification of Eagle's Medium supplemented with fetal bovine serum (10% final) and penicillin (100 U/mL)/streptomycin (100 μg/mL) in a 50 μL volume at a density of 1.5×10^4 cells/well in a poly-D-lysine coated 384 well flat bottom plate. Cells were incubated overnight at 37° C. in a humidified chamber with 5% CO2. Medium was aspirated and cells were washed with 1× Hank's Buffered Saline Salt Solution (50 μL). Cells were then incubated for 15 minutes at 37° C. with 50 μL of a 0.5 mM 3-isobutyl-1-methylxanthine (IBMX) solution.
were then added to the assay mixture and the resulting mixture incubated at 37° C. for 20 minutes. After the 20 minute incubation, the assay mixture was aspirated and 10% acetic acid containing 150 ng/mL+3-cGMP (internal standard for LCMS) (50 μL) was added to the cells. The plate was incubated at 4° C. for 30 minutes in the acetic acid solution to stop the reaction and lyse the cells. The plates were then centrifuged at 1,000 g for 3 minutes at 4° C. and the supernatant transferred to a clean reaction plate for LCMS analysis.
cGMP concentrations were determined from each sample using the LCMS conditions below (Table 2) and calculated standard curve.
Data were fit using a 4-parameter fit (log(agonist) vs. response—variable slope) using GraphPad Prism Software v.5. n=2 for all compounds. […] Compounds failing to elicit a minimum response of 50% are reported as >30 μM.

`CC(=O)c1cc(-c2ncc(F)c(NC[C@@H](C(=O)O)C(C)C)n2)nn1Cc1ccccc1F` [Compound 72]: the EC50 fell in the range of 100 to 1000 nM.
With `CC(=O)c1cc(-c2ncc(F)c(N(C)C[C@@H](C(=O)O)C(C)C)n2)nn1Cc1ccccc1F` [Compound 73], the EC50 is > 1000 nM.
Take `CCOC(=O)[C@H](CN(C)c1nc(-c2cc(C(C)=O)n(Cc3ccccc3F)n2)ncc1F)C(C)C` [Compound 74]: the EC50 lay within 100 to 1000 nM.
Consider `O=C(Cc1cc(=O)o[nH]1)Nc1ccnc(-c2cc(-c3ccon3)n(Cc3ccccc3F)n2)n1` [Compound 75], for which the EC50 was 100 to 1000 nM.
The same measure for `CC(=O)c1cc(-c2ncc(F)c(NCCS(N)(=O)=O)n2)nn1Cc1ccccc1F` [Compound 76]: 100 to 1000 nM; for `CC(=O)c1cc(-c2ncc(F)c(N3CCNC(=O)C3)n2)nn1Cc1ccccc1F` [Compound 77]: > 1000 nM.
As to `CC(=O)c1cc(-c2ncc(F)c(N3CCCC(F)(F)C3)n2)nn1Cc1ccccc1F` [Compound 79], the EC50 lay within 100 to 1000 nM.
Consider `COC1CCN(c2nc(-c3cc(C(C)=O)n(Cc4ccccc4F)n3)ncc2F)C1` (stereo not drawn) [Compound 80], for which the EC50 fell in the range of 100 to 1000 nM.
As to `CN(C)c1cc(-c2ncc(F)c(O)n2)nn1Cc1ccccc1F` [Compound 81], the EC50 was > 1000 nM.
With `CC(=O)c1cc(-c2ncc(F)c(N)n2)nn1Cc1ccccc1F` [Compound 84], the EC50 was > 1000 nM.
Regarding `CC(=O)c1cc(-c2ncc(F)c(NCC(O)(C(N)=O)C(F)(F)F)n2)nn1Cc1ccccc1F` (stereo not drawn) [Compound 85], the EC50 is 100 to 1000 nM.
As to `CC(=O)c1cc(-c2ncc(F)c(NCCCCC(=O)O)n2)nn1Cc1ccccc1F` [Compound 87], the concentration for a half-maximal effect (EC50) lay within 100 to 1000 nM.
For `CC(=O)c1cc(-c2ncc(F)c(N3CCC(S(N)(=O)=O)CC3)n2)nn1Cc1ccccc1F` [Compound 88], the EC50 lay within 100 to 1000 nM.
The same measure for `CC(=O)c1cc(-c2ncc(F)c(N3CC(C)C(C(=O)O)C3)n2)nn1Cc1ccccc1F` (stereo not drawn) [Compound 89]: 100 to 1000 nM; for `CC(=O)c1cc(-c2ncc(F)c(N(C)CC3(C(=O)O)CCCC3)n2)nn1Cc1ccccc1F` [Compound 90]: < 100 nM.
With `CC(=O)c1cc(-c2ncc(F)c(N(C)C)n2)nn1Cc1ccccc1F` [Compound 91], the EC50 was in the range of 100 to 1000 nM.
Consider `CC(=O)c1cc(-c2ncc(F)c(N3CCCC3)n2)nn1Cc1ccccc1F` [Compound 92], for which the EC50 was > 1000 nM.
With `CC(=O)c1cc(-c2ncc(F)c(N3CCCCC3)n2)nn1Cc1ccccc1F` [Compound 93], the EC50 lay in the range of 100 to 1000 nM.
Take `CC(=O)c1cc(-c2ncc(F)c(N3CCNCC3)n2)nn1Cc1ccccc1F` [Compound 94]: the EC50 is > 1000 nM.
Take `CC(=O)c1cc(-c2ncc(F)c(N3CCOCC3)n2)nn1Cc1ccccc1F` [Compound 95]: the EC50 was in the range of 100 to 1000 nM.
For the molecule `CC(=O)c1cc(-c2ncc(F)c(NS(=O)(=O)CCC(F)(F)F)n2)nn1Cc1ccccc1F` [Compound 96], the EC50 fell in the range of 100 to 1000 nM.
With `CCCS(=O)(=O)Nc1nc(-c2cc(C(C)=O)n(Cc3ccccc3F)n2)ncc1F` [Compound 97] the figure was > 1000 nM; with `CC(=O)c1cc(-c2ncc(F)c(NS(=O)(=O)c3ccccc3)n2)nn1Cc1ccccc1F` [Compound 98], > 1000 nM.
As to `CC(=O)c1cc(-c2ncc(F)c(N(C)CC3(C(N)=O)CC3)n2)nn1Cc1ccccc1F` [Compound 99], the 50% effective concentration (EC50) lay within 100 to 1000 nM.
Regarding `NC(=O)C(O)(CNc1nc(-c2cc(-c3ncco3)n(Cc3ccccc3F)n2)ncc1F)C(F)(F)F` (stereo not drawn) [Compound 102], the EC50 was 100 to 1000 nM.
Turning to `OC(CNc1nc(-c2cc(-c3ncco3)n(Cc3ccccc3F)n2)ncc1F)(C(F)(F)F)C(F)(F)F` [Compound 103], the EC50 lay in the range of 100 to 1000 nM.
As for `COCc1cc(-c2ncc(F)c(O)n2)nn1Cc1ccccc1F` [Compound 105], the EC50 is > 30000 nM.
Turning to `C[C@@](N)(CNc1nc(-c2cc(-c3ccon3)n(Cc3ccccc3F)n2)ncc1F)C(F)(F)F` [Compound 106], the EC50 is < 100 nM.
The same measure for `C[C@@](CNc1nc(-c2cc(-c3ccon3)n(Cc3ccccc3F)n2)ncc1F)(N[C@@H](CO)c1ccccc1)C(F)(F)F` [Compound 107]: < 100 nM.
The same measure for `CC(=O)c1cc(-c2ncc(F)c(N3CCC4(CCOCC4)C3)n2)nn1Cc1ccccc1F` [Compound 112]: 100 to 1000 nM; for `CC(=O)c1cc(-c2ncc(F)c(N3CCC4(CC3)COC4)n2)nn1Cc1ccccc1F` [Compound 113]: 100 to 1000 nM.
With `CC(=O)c1cc(-c2ncc(F)c(N3CC(F)(F)C3)n2)nn1Cc1ccccc1F` [Compound 114], the EC50 is > 1000 nM.
The same measure for `CC(=O)c1cc(-c2ncc(F)c(N3CCS(=O)(=O)C(C)(C)C3)n2)nn1Cc1ccccc1F` [Compound 115]: > 1000 nM; for `CC(=O)c1cc(-c2ncc(F)c(N3CC[C@H](O)[C@H](O)C3)n2)nn1Cc1ccccc1F` [Compound 116]: 100 to 1000 nM.
In the case of `CC(=O)c1cc(-c2ncc(F)c(N3CCC(O)C(CO)C3)n2)nn1Cc1ccccc1F` (stereo not drawn) [Compound 117], the EC50 was in the range of 100 to 1000 nM.
Regarding `CC(=O)c1cc(-c2ncc(F)c(N3CC4(COC4)C3)n2)nn1Cc1ccccc1F` [Compound 118], the EC50 was > 1000 nM.
As to `CC(=O)c1cc(-c2ncc(F)c(N3CCCS3(=O)=O)n2)nn1Cc1ccccc1F` [Compound 119], the EC50 was > 1000 nM.
With `CC(=O)c1cc(-c2ncc(F)c(N3CCN(S(C)(=O)=O)CC3)n2)nn1Cc1ccccc1F` [Compound 120] the figure was > 30000 nM; with `CC(=O)c1cc(-c2ncc(F)c(N3CC(NC(=O)C(F)(F)F)C3)n2)nn1Cc1ccccc1F` [Compound 121], > 1000 nM; with `CC(=O)c1cc(-c2ncc(F)c(N3CC(NC(=O)C4(O)CC4)C3)n2)nn1Cc1ccccc1F` [Compound 122], > 1000 nM.
The same measure for `CC(=O)c1cc(-c2ncc(F)c(NC3CCCCC3C(=O)O)n2)nn1Cc1ccccc1F` (stereo not drawn) [Compound 123]: 100 to 1000 nM.
Turning to `CC(=O)c1cc(-c2ncc(F)c(NCCO)n2)nn1Cc1ccccc1F` [Compound 125], the EC50 was > 1000 nM.
`CC(=O)c1cc(-c2ncc(F)c(Nc3nnc(C(F)(F)F)s3)n2)nn1Cc1ccccc1F` [Compound 126]: the EC50 is > 30000 nM.
On to `OCC(CCCC(F)(F)F)Nc1nc(-c2cc(-c3ccon3)n(Cc3ccccc3F)n2)ncc1F` (stereo not drawn) [Compound 127, 6,6,6-trifluoro-2-((5-fluoro-2-(1-(2-fluorobenzyl)-5-(isoxazol-3-yl)-1H-pyrazol-3-yl)pyrimidin-4-yl)amino)hexan-1-ol], for which the EC50 was < 100 nM.
With `CCC(C)(N)CNc1nc(-c2cc(C(C)=O)n(Cc3ccccc3F)n2)ncc1F` (stereo not drawn) [Compound 129, 1-(3-(4-((2-amino-2-methylbutyl)amino)-5-fluoropyrimidin-2-yl)-1-(2-fluorobenzyl)-1H-pyrazol-5-yl)ethanone], the EC50 was > 1000 nM.
Take `C[C@@](CNc1nc(-c2cc(-c3ccon3)n(Cc3ccccc3F)n2)ncc1F)(NC(CO)c1ccccc1)C(F)(F)F` (stereo partly drawn) [Compound 130, 2-phenyl-2-(((S)-1,1,1-trifluoro-3-((5-fluoro-2-(1-(2-fluorobenzyl)-5-(isoxazol-3-yl)-1H-pyrazol-3-yl)pyrimidin-4-yl)amino)-2-methylpropan-2-yl)amino)ethanol]: the EC50 fell in the range of 100 to 1000 nM.
For the molecule `C[C@](CNc1nc(-c2cc(-c3ccon3)n(Cc3ccccc3F)n2)ncc1F)(NC(CO)c1ccccc1)C(F)(F)F` (stereo partly drawn) [Compound 131, 2-phenyl-2-(((R)-1,1,1-trifluoro-3-((5-fluoro-2-(1-(2-fluorobenzyl)-5-(isoxazol-3-yl)-1H-pyrazol-3-yl)pyrimidin-4-yl)amino)-2-methylpropan-2-yl)amino)ethanol], the EC50 lay within 100 to 1000 nM.
With `CC(=O)c1cc(-c2ncc(F)c(N3CC(C(=O)O)C(C)(C)C3)n2)nn1Cc1ccccc1F` (stereo not drawn) [Compound 136, 1-(2-(5-acetyl-1-(2-fluorobenzyl)-1H-pyrazol-3-yl)-5-fluoropyrimidin-4-yl)-4,4-dimethylpyrrolidine-3-carboxylic acid], the EC50 lay within 100 to 1000 nM.

By EC50 is commonly meant the midpoint of the concentration-response curve.
